Assay results taken from ChEMBL document CHEMBL5230120, “Antiviral potential of natural products from marine microbes” (Eur J Med Chem, 2020).
pEC50, pIC50: −log10 of the molar value. Values after ≈ are worked out from the molar mass of the structure shown. Starred links: 1 amine or outer side, 2 acyl side, 3 side chain; linkers in the order of their positions; H or OH if unused. Positions of bridges follow the written chain, without caps; N, C: chain ends. Non-standard residues stand in square brackets, D forms with d. Residues, ends and D or L forms follow the SMILES beside them. X1 = CCCCCCCCC[C@@H](CCCC(=O)[*:1])O[*:2]; d(aThr) = C[C@@H](O)[C@@H](N)C(=O)O; dNMeY = CN[C@H](Cc1ccc(O)cc1)C(=O)O; aIle = CC[C@@H](C)[C@H](N)C(=O)O

What was measured:
Human alphaherpesvirus 1 [1] = assay type: functional, organism-based; settings: Human alphaherpesvirus 1, Vero, 72 h
Influenza A virus [2] = experiment: microbe, parasite or virus in culture; settings: H3N2, MDCK, 48 h
Influenza A virus [3] = experiment: microbe, parasite or virus in culture; settings: H1N1, MDCK, 48 h
[4] = system: Respiratory syncytial virus; assay type: functional, organism-based; settings: human respiratory syncytial virus, HEp-2
Dengue virus = experiment: Antiviral activity against Dengue virus serotype 2 infected in HEK293T/17 cells assessed as reduction in viral production at 50 uM incubated for 24 hrs by flow cytometric analysis; assay type: functional; set-up: scale not given: the % may be the effect or the level left
Influenza A virus [5] = assay type: functional
Human alphaherpesvirus 1 [6] = assay type: functional, organism-based; settings: Human alphaherpesvirus 1, Vero, 72 h; remark: listed apart in the source
Human alphaherpesvirus 1 [7] = assay type: functional, organism-based; settings: Human alphaherpesvirus 1, KOS, Vero, 72 h
Influenza A virus [8] = experiment: microbe, parasite or virus in culture; settings: H3N2, Vero
Influenza A virus [9] = experiment: microbe, parasite or virus in culture; settings: A/WSN/33 (H1N1), MDCK
[10] = system: Human immunodeficiency virus 1; experiment: Antiviral activity against HIV-1 infected in human HEK293 cells co-expressing firefly luciferase gene assessed as inhibition of viral growth incubated for 48 hrs by firefly luciferase assay; assay type: functional, organism-based; settings: Human immunodeficiency virus 1, HEK293, 48 h
[11] = Cytotoxicity against human HEK293 cells assessed as reduction in cell viability; assay type: toxicity, cell-based
[12] = system: Human immunodeficiency virus 1; experiment: Antiviral activity against HIV1 VSV-G pseudotyped virus infected in human SUP-T1 cells infected using supernatant of virus-producing 293T cells incubated for 48 hrs by firefly luciferase assay; assay type: functional, organism-based; settings: Human immunodeficiency virus 1, HEK293, 48 h
Influenza A virus [13] = assay type: functional, organism-based; settings: A/Puerto Rico/8/1934(H1N1), MDCK, 48 h
Chikungunya virus = experiment: Antiviral activity against CHIKV infected in Golden hamster BHK-21 cells assessed as reduction in viral titer incubated for 3 days by plaque assay; assay type: functional, organism-based; settings: BHK-21, 72 h
Enterovirus A71 [14] = assay type: functional, organism-based; settings: Enterovirus A, Vero
Human alphaherpesvirus 1 [15] = assay type: functional, organism-based; settings: Human alphaherpesvirus 1, Vero, 72 h; remark: listed apart in the source
Human alphaherpesvirus 1 [16] = assay type: functional, organism-based; settings: Human alphaherpesvirus 1, Vero, 72 h; remark: listed apart in the source
Enterovirus A71 [17] = assay type: functional, organism-based; settings: Enterovirus A, Vero; remark: listed apart in the source
Influenza A virus [18] = assay type: functional, organism-based; settings: H1N1
Hepatitis C virus = experiment: Antiviral activity against HCV infected in human Huh7.5 cells incubated for 72 hrs by RT-PCR assay; assay type: functional, organism-based, Hepacivirus hominis; settings: Huh7.5, 72 h
[19] = system: Western equine encephalitis virus; experiment: Antiviral activity against Western equine encephalomyelitis virus Cba-87 infected in Golden hamster BSR-T7/5 cells assessed as reduction in viral RNA replication by RT-PCR analysis; assay type: functional, organism-based; settings: Cba-87, BSR-T7/5
Human alphaherpesvirus 1 [20] = assay type: functional, organism-based; settings: Human alphaherpesvirus 1, 15577, Vero
Human alphaherpesvirus 1 [21] = assay type: functional, organism-based; settings: Human alphaherpesvirus 1, Vero, 72 h; remark: listed apart in the source

COc1ccc(-c2cc3c(c(=O)o2)C[C@]2(O)[C@@]4(C)C(=O)C=CC(C)(C)[C@]4(O)CC[C@@]2(C)O3)cc1OC
IC50 (Human alphaherpesvirus 1 [1]): 6.34 µg/mL (≈ 12.8 µM)

CC[C@H]1O[C@@H]2O[C@H](/C=C/C=C/C=C/c3oc(=O)cc(OC/C=C(\C)C(=O)OC)c3C)[C@H](O)[C@]2(C)[C@@]1(C)O
pIC50 (Influenza A virus [2]): 8.21 | pIC50 (Influenza A virus [3]): 5.46

COC(=O)/C(C)=C/COc1cc(=O)oc(/C=C/C=C/C=C/[C@H]2O[C@H]3O[C@H](C)[C@](C)(O)[C@@]3(C)[C@H]2O)c1C
pIC50 (Influenza A virus [2]): 8.05

COC(=O)[C@]1(Cc2ccc3c(c2)CCC(C)(C)O3)OC(=O)C(O)=C1c1ccc(O)cc1
IC50 (Human alphaherpesvirus 1 [1]): 28.9 µg/mL (≈ 68.1 µM)

CCCCC/C=C/C1=C(CO)[C@@H]2OC(C)(C)[C@@H](O)C[C@@]23O[C@H]3[C@@H]1O
pIC50 [4]: 4.52

CC(C)[C@@H]1NC(=O)[C@@H](C[C@@]2(O)c3ccccc3N3C(=O)C(C)(C)N[C@@H]32)n2c1nc1ccccc1c2=O
Activity (Dengue virus): 50%

CC(=O)c1c(O)cc2c3c(cccc13)C=C(C[C@@H](C)O)O2
inhibition at 50 µg/mL (Influenza A virus [5]): 42.5%

CCCCCCCCC[C@H]1CCCC(=O)N[C@H](CO)C(=O)N[C@H](C)C(=O)N2CCC[C@H]2C(=O)N[C@@H](CCC(N)=O)C(=O)N[C@H](Cc2ccc(O)cc2)C(=O)N[C@@H](C(C)C)C(=O)O1
pEC50 (Human alphaherpesvirus 1 [6]): 4.81

COc1cc(O)c2c(c1)[C@H](O)[C@](O)(CC(C)=O)CC2=O
IC50 (Human alphaherpesvirus 1 [7]): 0.1 µg/mL (≈ 0.357 µM)

CC(=O)[C@H]1CC[C@H]2C3=CC(=O)[C@H]4C[C@H](O)CC[C@]4(C)[C@H]3CC[C@]12C
pIC50 (Influenza A virus [8]): 4.79

COc1cc(O)c2c(c1)[C@H](O)[C@@H](CC(C)=O)CC2=O
IC50 (Human alphaherpesvirus 1 [7]): 1 µg/mL (≈ 3.78 µM)

C=C(C)C#CC1=C[C@@H]2O[C@@H](C(C)(C)O)C[C@]23O[C@@H]3[C@@H]1O
pIC50 (Influenza A virus [9]): 4.52

COc1cc(CCCC(C)C)oc(=O)c1C
pIC50 [10]: 4.79 | pIC50 [11]: < 4.00

O=C1C[C@H](O)Cc2cc3cc(O)cc(-c4ccccc4)c3c(O)c21
inhibition at 50 µg/mL (Influenza A virus [5]): 47.8%

C=C(CC[C@@H](C)[C@H]1CC=C2C3=C(CC[C@@]21C)[C@@]1(C)CC[C@H](O)C[C@@H]1CC3=O)C(C)C
pIC50 [12]: 5.46

CC1(C)CCc2cc(/C=C3\OC(=O)C=C3c3ccc(O)cc3)ccc2O1
pIC50 (Influenza A virus [13]): 4.06

CO[C@@H](CC[C@H](C)[C@H]1O[C@@]23C[C@H](OC(=O)C[C@H]([C@@H](C)O)OC(=O)C[C@](OC)(O2)[C@H](C)CC3(C)C)[C@@H]1C)c1cccc(O)c1
pIC50 (Chikungunya virus): 5.57

CC(O)c1cc2c(cc1O)C(=O)c1cc(O)cc(O)c1C2=O (stereo unspecified)
pIC50 (Enterovirus A71 [14]): 4.59

C[C@@H]1C/C=C/C(=O)C/C=C/[C@H](O)CC(=O)O1
pIC50 (Human alphaherpesvirus 1 [15]): 6.35

COc1cc(O)c2c(c1)[C@@H]1OC(C)(OC)C[C@]1(O)CC2=O (stereo partly specified)
IC50 (Human alphaherpesvirus 1 [7]): 0.1 µg/mL (≈ 0.34 µM)

CC(C)/C=c1\[nH]c(=O)/c(=C/c2ccc(O)cc2)[nH]c1=O
pIC50 (Influenza A virus [13]): 4.38

CCCCC/C=C/C1=C(CO)[C@@H]2OC(C)(C)[C@@H](O)C[C@]2(O)[C@H](O)[C@@H]1O
pIC50 [4]: 4.14

C=C(C)C#CC1=C[C@@H]2O[C@@H](C(C)(C)O)C[C@]23O[C@@H]3[C@H]1O
pIC50 [11]: < 4.00

CC(=O)C(C)(O)CCCCC[C@H]1C=CC(=O)O1 (stereo partly specified)
pEC50 (Human alphaherpesvirus 1 [16]): 4.60

Cc1c2c(c3oc4c(C)c(=O)c(C)c5c-4c(c3c1O)O[C@H](C)[C@H]5C)O[C@H](C)[C@H]2C
pIC50 (Enterovirus A71 [17]): 4.84

O=C(O)c1ccccc1Nc1c(C[C@H](O)[C@H](O)CO)[nH]c2c(C(=O)O)cccc12
pIC50 (Influenza A virus [18]): 3.77

COc1cc(O)c2c(c1)[C@H](O)[C@](O)(CO)CC2=O
IC50 (Human alphaherpesvirus 1 [7]): 1 µg/mL (≈ 3.93 µM)

COc1cc(O)c2c(c1)[C@H](O)[C@](O)(CC(C)O)CC2=O (stereo partly specified)
IC50 (Human alphaherpesvirus 1 [7]): 0.01 µg/mL (≈ 0.0354 µM)

CC[C@H](C)c1nc(OC)c(Cc2c[nH]c3ccccc23)nc1O
pIC50 [12]: 5.34 | pIC50 (Hepatitis C virus): 5.11

COc1ccc(-c2cc3c(c(=O)o2)C[C@H]2[C@@](C)(CC[C@@]4(O)C(C)(C)OC(=O)CC[C@]24C)O3)cc1
IC50 (Human alphaherpesvirus 1 [1]): 16.4 µg/mL (≈ 35 µM)

CC(C)CC[C@@H]1NC(=O)/C(=C/c2ccccc2)NC1=O
pIC50 (Influenza A virus [13]): 5.17

CCC[C@H]1C[C@H]2OC(=O)c3c(cc(O)c(OC)c3O)[C@H]2O1
pIC50 (Influenza A virus [13]): 3.76

CCCCCCCC[C@H]1C(=O)O[C@H](C)[C@H](NC(=O)c2cccc(NC=O)c2O)C(=O)O[C@@H](C)[C@@H]1OC(=O)CC(C)CC (stereo partly specified)
pIC50 [19]: 8.52

COC1(Cc2ccc(O)cc2)OC(=O)C(O)=C1c1ccc(O)cc1 (stereo unspecified)
IC50 (Human alphaherpesvirus 1 [1]): 21.8 µg/mL (≈ 66.4 µM)

CC(C)[C@@H](NC(=O)[C@H](Cc1c[nH]c2ccccc12)NC(=O)[C@H](N)Cc1ccc(O)cc1)C(=O)O
pIC50 (Human alphaherpesvirus 1 [20]): 4.70

COc1cc(O)c2c(c1)[C@H](O)[C@@H](CO)CC2=O
IC50 (Human alphaherpesvirus 1 [7]): 1 µg/mL (≈ 4.2 µM)

CO[C@@H](CC[C@H](C)[C@H]1O[C@]23C[C@H](OC(=O)C[C@H]([C@@H](C)O)OC(=O)CC(=C(C)CC2(C)C)O3)[C@@H]1C)c1cccc(O)c1
pIC50 (Chikungunya virus): 4.65

CC(=O)[C@H]1CC[C@H]2C3=CC(=O)[C@@]4(C)C[C@H](O)CC[C@]4(C)[C@H]3CC[C@]12C
pIC50 [4]: 6.92

CCCCCCCCC[C@H]1CCCC(=O)N[C@H]([C@@H](C)O)C(=O)N[C@H](C)C(=O)N2CCC[C@H]2C(=O)N[C@@H](CCC(N)=O)C(=O)N[C@H](Cc2ccc(O)cc2)C(=O)N[C@@H](C(C)C)C(=O)O1
pEC50 (Human alphaherpesvirus 1 [6]): 4.78

CCC(C)[C@@H]1C(=O)/C(=C(/O)[C@@H]2[C@@H]([C@@H]3O[C@H]3C)C(C)=C[C@@H]3CCC[C@H](C)[C@@H]23)C(=O)N1C (stereo partly specified)
pIC50 (Human alphaherpesvirus 1 [21]): 5.51

C/C=C(\C)[C@H]1C(C)=C[C@@H]2CCC[C@H](C)[C@H]2[C@@H]1/C(O)=C1\C(=O)[C@@H](C(C)C)N(C)C1=O
pIC50 (Human alphaherpesvirus 1 [21]): 5.51

CC1=C[C@@H]2CCC[C@H](C)[C@H]2[C@H](/C(O)=C2\C(=O)[C@@H](C(C)C)N(C)C2=O)[C@H]1[C@@H]1O[C@H]1C
pIC50 (Human alphaherpesvirus 1 [21]): 5.03

CCCCCCCCC[C@H]1CCCC(=O)N[C@H]([C@@H](C)O)C(=O)N[C@H](C)C(=O)N2CCC[C@H]2C(=O)N[C@@H](CCC(N)=O)C(=O)N[C@H](Cc2ccc(O)cc2)C(=O)N[C@@H]([C@H](C)CC)C(=O)O1 ([d(aThr)][dA]PQ[dY][aIle]; linker N-C via X1)
pEC50 (Human alphaherpesvirus 1 [6]): 4.85

COc1ccc(C[C@@H]2NC(=O)[C@@H]3CCCN3C(=O)[C@H](C(C)C)NC(=O)[C@@H](Cc3ccc(O)cc3)N(C)C(=O)[C@H](Cc3ccc(OC)cc3)NC2=O)cc1 (cyclo(PY(Me)Y(Me)[dNMeY]V))
pIC50 (Human alphaherpesvirus 1 [20]): 5.02

Nc1nc2c(ncn2COCCO)c(=O)[nH]1 [ACYCLOVIR]
pEC50 (Human alphaherpesvirus 1 [6]): 5.52 | pIC50 (Human alphaherpesvirus 1 [21]): 5.46

CO[C@@H](CC[C@H](C)[C@H]1O[C@@]23C[C@H](OC(=O)C[C@H]([C@@H](C)O)OC(=O)C[C@](O)(O2)[C@H](C)CC3(C)C)[C@@H]1C)c1cccc(O)c1 [DEBROMOAPLYSIATOXIN]
pIC50 (Chikungunya virus): 5.89

O=C1Nc2ccc(Cl)cc2[C@@](C#CC2CC2)(C(F)(F)F)O1 [EFAVIRENZ]
pIC50 [11]: 4.39

Nc1nc2c(ncn2COC(CO)CO)c(=O)[nH]1 [GANCICLOVIR]
pEC50 (Human alphaherpesvirus 1 [16]): 7.60

CCC[C@H]1C[C@H]2OC(=O)c3c(cc(OC)c(OC)c3O)[C@H]2O1 [MONOCERIN]
pIC50 (Influenza A virus [13]): 3.76

CCOC(=O)C1=C[C@@H](OC(CC)CC)[C@H](NC(C)=O)[C@@H](N)C1 [OSELTAMIVIR]
pIC50 (Influenza A virus [9]): 4.33 | pIC50 (Influenza A virus [8]): 7.47

NC(=O)c1ncn([C@@H]2O[C@H](CO)[C@@H](O)[C@H]2O)n1 [RIBAVIRIN]
pIC50 (Influenza A virus [13]): 4.41 | pIC50 (Influenza A virus [18]): 3.88 | inhibition at 50 µg/mL (Influenza A virus [5]): 45.3% | pIC50 [4]: 7.10 | pIC50 (Enterovirus A71 [17]): 4.88 | pIC50 (Enterovirus A71 [14]): 4.88
